Experimental findings from paper PMC4995014, “Identification of ABC Transporter Interaction of a Novel Cyanoquinoline Radiotracer and Implications for Tumour Imaging by Positron Emission Tomography” (PLoS ONE, 2016) are described below.

The data set in a line: Caco2 transwell assay. The class given is in vitro ADME, human. The note with it: human, Caco-2, with verapamil 10 mg/mL, pre-treatment for 1 h, pre-treatment with 10 mg/mL verapamil for 1 h; read-out: efflux ratio in the presence of verapamil. Here is the method: The caco2 transwell assay was performed to assess permeability. Cells were seeded at a density of 60,000 cells per well in 24 well transwell plates (Millipore, Billerica, Massachutsetts, USA), and maintained in DMEM supplemented with […] glucose (20% FBS, 1% penicillin/streptomycin, 1% glutamine) for 21 days at 37°C in 5% CO2. After 21 days the cells differentiate into enterocytes and express all three MDR proteins, ABCB1 and ABCG2 at the apical side and ABCC1 on the basal side. On day 21, cells were washed three times with Hank's Balanced Salt Solution (HBSS) (Fisher scientific, Loughborough, UK) and the trans-epithelial electric resistance (TERR) was measured using an Epithelial Voltohmmeter (EVOM) (World Precision Instruments, Sarasota, USA); only transwells with TERR of 400 Ω/cm^2 or above were used for the experiment. Cells were treated either at the apical (n = 3) or basal (n = 3) side of the transwell by addition of 10 μM of cyanoquinoline compound or 50 μM vinblastine prepared in a volume of 400 μL HBSS (compound added to apical well) or 800 μL of HBSS (added to basal well). When transport inhibitors FTC (10 μM) or zosuquidar (0.3 μM) were used, they were added to both the apical and basal wells 1 h prior to drug treatment. After 1 h pre-treatment the medium was removed and cells were treated with the compounds prepared in HBSS containing FTC or Zosuquidar.
Plates were incubated in shaker incubator at 37°C and 60 rpm for 120 min. After incubation, 200 μL aliquots from the apical and the basal wells were collected and analysed using high performance liquid chromatography (HPLC). Samples were run on a Millipore Waters HPLC system which included a 717 plus autosampler and 2487 dual wavelength absorbance detector system. The stationary phase comprised of a Phenomenex Luna C18 reverse phase column (150 X 4.6 mm; 5 μm particle size). The mobile phase comprised water (0.1% TFA) and acetonitrile (0.1% TFA) (80:20 v/v) at a flow rate of 1 mL/min for all compounds except vinblastine. For vinblastine, the stationary phase comprised a Supelcosil LC-ABZ reverse phase column (5 × 4.6 mm; 5 μm particle size). The mobile phase comprised water (0.1% formic acid) and methanol (90:10 to 10:90 v/v gradient over 20 min). Peak areas corresponding to the compounds of interest were recorded. Using standard curves the areas under the curve were converted into concentrations of compound. The permeability coefficient (Papp) was calculated using the following equation [30]: Papp = (dQ/dt)/A C0, where A is the surface area of the transwell membrane in cm^2 (= 0.33 cm^2), C0 is the drug concentration in the donor chamber at time t = 0 and dQ/dt is the rate of transfer of the compound to the receiver chamber, determined from the slope of the graph concentration (dQ) versus time (dt). Papp values corresponding to absorption and secretion were assessed and used to calculate efflux ratio. Efflux ratio =(Papp B−A)/(Papp A−B) Where Papp A-B = Papp absorption and Papp B-A = Papp secretion.
The integrity of the caco2 cell membrane was assessed for each well following the experiment by addition of a 100 μM solution of […] (Sigma) in HBSS to the apical side of the plate. The plates were placed in the shaker incubator for 1 h at 37°C and 60 rpm. Samples from the basal wells were transferred into a 96 well plate and the levels of […] were assessed by measuring with an excitation of 450 nm and an emission of 540 nm using the PerkinElmer Wallac 1420 counter.

`CCOc1cc2ncc(C#N)c(Nc3ccc(F)c(Cl)c3)c2cc1NC(=O)/C=C/CNCc1cn(CCF)nn1` [FED6, (2E)-N-{4-[(3-chloro-4-fluorophenyl)amino]-3-cyano-7-ethoxyquinolin-6-yl}-4-({[1-(2-fluoroethyl)-1H-1,2,3-triazol-4-yl]methyl}amino)-but-2-enamide]: the efflux ratio at 120 min, 10 μM was 1.1.
